Assay results: publication PMC3526141 (Bioorganic & medicinal chemistry letters, 2012)

target: Prostate-specific membrane antigen (PSMA) (Homo sapiens, UniProt Q04609); experiment: inhibition of purified PSMA enzymatic activity; type: biochemical
Sequence (Q04609 whole entry): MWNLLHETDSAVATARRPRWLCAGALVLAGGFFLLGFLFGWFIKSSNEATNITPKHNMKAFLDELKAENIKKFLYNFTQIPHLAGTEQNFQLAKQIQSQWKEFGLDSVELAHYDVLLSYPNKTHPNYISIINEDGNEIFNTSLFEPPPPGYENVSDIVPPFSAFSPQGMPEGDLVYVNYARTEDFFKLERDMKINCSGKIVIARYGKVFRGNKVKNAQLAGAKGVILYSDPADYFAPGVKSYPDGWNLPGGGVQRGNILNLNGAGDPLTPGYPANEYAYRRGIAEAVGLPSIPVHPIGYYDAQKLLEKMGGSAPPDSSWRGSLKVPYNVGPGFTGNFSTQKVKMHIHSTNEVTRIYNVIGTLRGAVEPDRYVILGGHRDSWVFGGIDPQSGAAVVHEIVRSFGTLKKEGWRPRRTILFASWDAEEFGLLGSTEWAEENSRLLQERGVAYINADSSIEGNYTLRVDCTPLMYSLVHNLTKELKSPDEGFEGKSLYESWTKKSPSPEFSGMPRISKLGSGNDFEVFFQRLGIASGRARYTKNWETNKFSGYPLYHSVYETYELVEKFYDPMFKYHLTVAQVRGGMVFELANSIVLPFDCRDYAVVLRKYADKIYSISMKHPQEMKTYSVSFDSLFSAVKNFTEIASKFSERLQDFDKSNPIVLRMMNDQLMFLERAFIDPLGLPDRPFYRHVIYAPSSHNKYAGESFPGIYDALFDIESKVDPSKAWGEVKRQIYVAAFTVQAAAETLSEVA

Substance	IC50 [nM]
biotin-CTT54	1.21
biotin-PEG12-CTT54	10
biotin-PEG4-CTT54	2.53
